Results from patent US20210145802A1, “THERAPY FOR OPHTHALMOLOGICAL CONDITIONS” (WREN THERAPEUTICS LIMITED, priority 2018, published 2021).

System: GMC101 (Aβ worms)
Experiment: ROS production (ROS-Glo H2O2 assay) in worms
Type: in vivo, C. elegans
Details: 5 μM; administered at L4; D5 of adulthood
Procedure: ROS-Glo™ H2O2 cell kit assay was used (Promega, Fitchburg, Wis., USA) and adapted for C. elegans studies. The ROS-Glo™ H2O2 Assay is a bioluminescent assay that measures the level of H2O2, a reactive oxygen species (ROS), directly in cell culture or tissue or in defined enzyme reactions. A derivatized luciferin substrate is incubated with sample and reacts directly with H2O2 to generate a luciferin precursor. Worms treated with 5 μM Netoglitazone in 1% DMSO or 1% DMSO only were washed using M9 buffer out the NGM plates. The buffer was then changed 3 times to remove the excess bacteria. Worm pellets were then divided in three wells and 80 μl of worm pellet (around 200 worms/well) was incubated for 6 h at RT with 20 μl of a ROS Substrate Solution (Promega, Fitchburg, Wis., USA); mild shaking at 300 rpm was used to avoid worm sedimentation; afterwards, worms were incubated for ca. 20 min with 100 μl of the detection solution; luminescence was then measured with a Clariostar (BMG Labtech, Aylesbury, UK).

## O=C1NC(=O)C(Cc2ccc3cc(OCc4ccccc4F)ccc3c2)S1 (stereo not shown) [Netoglitazone]
  levels of ROS production: significantly decreased the levels of oxidative species
